Experimental data: patent US20250057963A1, “DISCOVERY OF PIPERLONGUMINE AS A NOVEL E3 LIGASE LIGAND” (University of Florida Research Foundation, Incorporated, priority 2021, published 2025)

Tests used:
[1] = molecular target: T1, CDK9: 955: KEAP1 ternary complex (Homo sapiens, UniProt P50750+Q14145); test: NanoBRET ternary complex formation assay in live 293T cells; format: cell-based; settings: HiBit-CDK9 and Halo-KEAP1 in 293T cells, 6 h
T1 construct: expressed in transfected cells; host or cells: 293T
Description: CMV HiBit (Cat. No. CS1956B03) was purchased from Promega. Plasmid HaloTag-KEAP1 (a gift from Yimon Aye, plasmid #58240) was purchased from Addgene. HiBit-CDK9 were constructed through the Gibson assembly method. The primer pair (5′-[…]atggcaaagcagtacgactcggtggag-3′ and 5′-[…]gaagacgcgctcaaactccgtctggt-3′) and the template HA-CDK9 (a gift from Andrew Rice, plasmid #28102) was used to clone the CDK9 fragment. The primer pair (5′-accagacggagtttgagcgcgtcttc[…]-3′ and 5′-ctccaccgagtcgtactgcttcgccat[…]-3′) and pBit3.1—N(Cat. No. N2361, Promega) were used to clone the vector-containing fragment. The PCR fragments were assembled using NEBuilder® HiFi DNAAssembly Master Mix. DNA sequences in all these plasmids were authenticated by automatic sequencing. […] After treatment, NanoBRET Nano-Glo Substrate (Cat. No. N1662, Promega) was added into the medium, and the contents were mixed by shaking the plate for 30 s before measuring donor and acceptor signals on Biotek plate reader. Dual-filtered luminescence was collected with a 450/50 nm bandpass filter (donor, NanoBiT-CDK9 protein) and a 610-nm longpass filter (acceptor, HaloTag NanoBRET ligand) using an integration time of 0.5 s. mBRET ratios were calculated following the NanoBRET™ Nano-Glo® Detection System (Cat. No. N1662, Promega).

[2] = test system: MOLT4 cells; test: Viability (MTS) assay in MOLT4 cells; format: cell-based, Human; settings: 72 h treatment
Description: Human T-ALL MOLT4 (Cat. No. CRL-1582), K562 (Cat. No. CCL-243), NCI-H1299 (Cat. No. CRL-5803), NCI-H2228 (Cat. No. CRL-5935), LNCaP (Cat. No. CRL-1740), 22RV1 (Cat. No. CRL-2505), PC3 (Cat. No. CRL-1435), DU145 (Cat. No. HTB-81), and epithelial kidney HEK 293T (293T, Cat. No. ACS-4500) cell lines were recently purchased from American Type Culture Collection (ATCC, Manassas, VA, USA). MOLT4, K562, NCI—H-1299, NCI-H2228, LNCap, and 22RV 1 cell lines were cultured in RPMI 1640 medium (Cat No. 22400-089, Thermo Fisher Scientific, Waltham, MA, USA) supplemented with 10% (v/v) heat-inactivated fetal bovine serum (FBS, Cat. No. S11150H, Atlanta Biologicals, Flowery Branch, GA, USA), 100 U/mL penicillin and 100 pig/mL streptomycin (Pen-Strep, Cat. No. 15140122, Thermo Fisher Scientific). PC3 cells were cultured in complete F—12K medium (Kaighn's modification of Ham's F-12 medium, Cat. No. 30-2004, ATCC) supplemented with 10% (v/v) heat-inactivated FBS, 100 U/mL penicillin, and 100 μg/mL streptomycin. […]
Viability (MTS) assays in various cancer cells followed the methods described in our previous report (Khan et al., 2019). The data were expressed as average % cell viability and fitted in non-linear regression curves using GraphPad Prism 9 (GraphPad Software, La Jolla, CA, USA).

[3] = test system: LNCaP, 22RV1, PC3 and DU145 prostate cancer cell lines; test: Viability (MTS) assay in prostate cancer cell lines; format: cell-based, Human; settings: all four cell lines LNCaP, 22RV1, PC3, DU145; MTS, 72 h treatment
Description: All the cell lines were maintained in a humidified incubator at 37° C. and 5% CO2. […] The data were expressed as average % cell viability and fitted in non-linear regression curves using GraphPad Prism 9 (GraphPad Software, La Jolla, CA, USA).

T1 sequence (P50750 whole entry): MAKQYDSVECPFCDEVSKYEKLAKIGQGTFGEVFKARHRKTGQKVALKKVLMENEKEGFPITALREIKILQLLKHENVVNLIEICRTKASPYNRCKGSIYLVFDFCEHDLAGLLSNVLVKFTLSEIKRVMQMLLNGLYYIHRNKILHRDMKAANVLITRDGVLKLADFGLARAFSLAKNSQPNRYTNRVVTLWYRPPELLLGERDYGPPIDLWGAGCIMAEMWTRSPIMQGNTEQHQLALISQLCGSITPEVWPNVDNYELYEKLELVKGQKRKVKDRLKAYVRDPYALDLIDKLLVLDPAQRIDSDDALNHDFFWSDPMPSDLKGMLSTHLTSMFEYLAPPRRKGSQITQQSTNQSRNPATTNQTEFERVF
T1 sequence (Q14145 whole entry): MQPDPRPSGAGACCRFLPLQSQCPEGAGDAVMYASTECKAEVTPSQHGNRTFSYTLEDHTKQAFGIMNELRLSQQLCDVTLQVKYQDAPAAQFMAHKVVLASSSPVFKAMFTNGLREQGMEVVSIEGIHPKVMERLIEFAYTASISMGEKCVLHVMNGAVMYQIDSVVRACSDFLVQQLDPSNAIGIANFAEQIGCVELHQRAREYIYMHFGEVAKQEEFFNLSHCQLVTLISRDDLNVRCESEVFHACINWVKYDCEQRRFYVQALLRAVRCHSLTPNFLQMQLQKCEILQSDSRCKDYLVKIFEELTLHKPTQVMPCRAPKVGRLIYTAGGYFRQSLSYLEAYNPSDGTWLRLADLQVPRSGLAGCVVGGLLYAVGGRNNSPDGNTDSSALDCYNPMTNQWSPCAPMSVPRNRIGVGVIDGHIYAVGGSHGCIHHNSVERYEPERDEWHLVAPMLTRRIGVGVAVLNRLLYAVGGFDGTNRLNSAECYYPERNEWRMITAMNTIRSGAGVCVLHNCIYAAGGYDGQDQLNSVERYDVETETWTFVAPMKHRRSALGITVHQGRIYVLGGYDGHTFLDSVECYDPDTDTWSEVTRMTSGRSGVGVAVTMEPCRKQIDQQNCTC

EC50, anti-proliferation [3]: single digital nM range
SMILES: COc1cc(/C=C/C(=O)N2CCC=CC2=O)cc(OC)c1OCCN1CCN(C(=O)CN2CCC(C(=O)Nc3ncc(SCc4ncc(C(C)(C)C)o4)s3)CC2)CC1 [compound 955, (E)-N-(5-(((5-(tert-butyl)oxazol-2-yl)methyl)thio)thiazol-2-yl)-1-(2-(4-(2-(2,6-dimethoxy-4-(3-oxo-3-(6-oxo-3,6-dihydropyridin-1(2H)-yl)prop-1-en-1-yl)phenoxy)ethyl)piperazin-1-yl)-2-oxoethyl)piperidine-4-carboxamide]
formation of the CDK9:KEAP1 ternary complex [1]: formed a stable ternary complex with CDK9 and KEAP1 in a dose-dependent manner
potency to kill MOLT4 cells compared with SNS-032 [2]: more potent to kill MOLT4 cells compared with SNS-032
